In general, IC50 refers to the concentration at which inhibition is half-maximal. One may read the Ki as the dissociation constant of the complex between target and ligand, obtained from inhibition or displacement.

Series [1] has as its target T1, Alpha-2A adrenergic receptor (Homo sapiens, UniProt P08913). Further: in other assays of this panel Not Active means under 50% inhibition at 10 µM.
T1 sequence (P08913 whole entry): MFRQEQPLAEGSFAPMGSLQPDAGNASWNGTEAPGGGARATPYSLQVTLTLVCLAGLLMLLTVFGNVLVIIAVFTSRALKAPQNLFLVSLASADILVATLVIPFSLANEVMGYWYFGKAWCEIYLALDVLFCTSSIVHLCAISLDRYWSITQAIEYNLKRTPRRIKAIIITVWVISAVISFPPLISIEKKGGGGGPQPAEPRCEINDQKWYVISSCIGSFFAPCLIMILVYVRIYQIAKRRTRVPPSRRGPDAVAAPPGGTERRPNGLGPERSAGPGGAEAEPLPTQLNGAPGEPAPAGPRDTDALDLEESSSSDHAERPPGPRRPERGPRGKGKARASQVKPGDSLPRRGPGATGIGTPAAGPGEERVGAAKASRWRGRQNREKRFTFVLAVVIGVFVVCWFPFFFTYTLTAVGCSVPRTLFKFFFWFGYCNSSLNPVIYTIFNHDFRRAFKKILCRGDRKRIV
The class given is cell membranes, Sf9, Membrane.

A short description of series [2]: DRUGMATRIX: Calcium Channel Type L, Benzothiazepine radioligand binding (ligand: [3H] Diltiazem). The class given is cell membranes, Rattus norvegicus, Wistar, Brain, Membrane. The note with it: Not Active = under 50% inhibition at 10 µM.
Series [3] deals with 5-hydroxytryptamine receptor 4 (Cavia porcellus, UniProt O70528). It counts as cell membranes, Dunkin-Hartley, Striatum, Membrane.
The nature of series [4]: DRUGMATRIX: Calcium Channel Type L, Phenylalkylamine radioligand binding (ligand: [3H] (-)-Desmethoxyverapamil (D-888)). The note with it: Not Active = under 50% inhibition at 10 µM. The class given is cell membranes, Rattus norvegicus, Wistar, Brain, Membrane.
Series [5] in a line: DRUGMATRIX: Nicotinic Acetylcholine radioligand binding (ligand: [125I] Epibatidine). To be noted: imr-32; Not Active = under 50% inhibition at 10 µM. It counts as cell membranes, Membrane.
A short description of series [6]: DRUGMATRIX: Purinergic P2X radioligand binding (ligand: [3H] alpha, beta-Methylene-ATP). It counts as cell membranes, Oryctolagus cuniculus, New Zealand albino, Urinary bladder, Membrane. The note with it: Not Active = under 50% inhibition at 10 µM.
Another series has as its target T2, Cytochrome P450 2A6 (Homo sapiens, UniProt P11509). Further: in other assays of this panel Not Active means under 50% inhibition at 10 µM.
T2 sequence (P11509 whole entry): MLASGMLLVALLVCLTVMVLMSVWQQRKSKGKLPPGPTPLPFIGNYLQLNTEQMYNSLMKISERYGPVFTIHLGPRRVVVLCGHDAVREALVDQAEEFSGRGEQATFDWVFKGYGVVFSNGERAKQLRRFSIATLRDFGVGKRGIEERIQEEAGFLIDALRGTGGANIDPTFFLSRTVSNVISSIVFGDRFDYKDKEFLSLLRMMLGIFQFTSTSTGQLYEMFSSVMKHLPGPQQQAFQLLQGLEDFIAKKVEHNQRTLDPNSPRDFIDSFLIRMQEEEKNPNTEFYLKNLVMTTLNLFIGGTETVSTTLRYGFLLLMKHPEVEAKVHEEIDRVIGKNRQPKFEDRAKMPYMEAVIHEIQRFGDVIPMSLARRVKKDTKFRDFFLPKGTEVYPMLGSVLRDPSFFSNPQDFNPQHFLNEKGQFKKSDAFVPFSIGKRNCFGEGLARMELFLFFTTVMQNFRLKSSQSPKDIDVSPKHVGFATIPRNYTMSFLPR
To be noted: bti-tn-5b1-4.

Sequence of 5-hydroxytryptamine receptor 4 (O70528 whole entry): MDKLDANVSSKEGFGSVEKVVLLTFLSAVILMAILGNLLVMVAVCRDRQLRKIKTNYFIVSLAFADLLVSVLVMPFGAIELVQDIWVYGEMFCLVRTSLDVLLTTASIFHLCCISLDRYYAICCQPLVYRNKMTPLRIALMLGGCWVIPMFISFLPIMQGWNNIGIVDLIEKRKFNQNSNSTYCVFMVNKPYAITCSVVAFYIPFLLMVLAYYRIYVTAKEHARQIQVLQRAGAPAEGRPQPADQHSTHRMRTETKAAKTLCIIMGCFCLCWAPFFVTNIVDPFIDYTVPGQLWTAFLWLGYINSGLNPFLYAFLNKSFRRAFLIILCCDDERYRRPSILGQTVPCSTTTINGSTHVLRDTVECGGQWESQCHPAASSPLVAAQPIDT

Take `CCCNC(C)C(=O)Nc1ccccc1C` (stereo unspecified) [PRILOCAINE]: the IC50 entry in series [1] (sf9), in series [2], in series [3], in series [4], in series [5] and in series [6] was “Not Active” throughout. Moreover, the IC50 entry against Cytochrome P450 2A6 is listed as “Not Active”. Also, the Ki entry (in series [2]; in series [4]; in series [5]; in series [6]; at Cytochrome P450 2A6) was “Not Active” in each case.
With `CCN(CC)CCNC(=O)c1ccc(N)cc1` [PROCAINAMIDE], the IC50 entry in series [1] (sf9), in series [2], in series [3], in series [4], in series [5] and in series [6] was “Not Active” in each case. Besides, at Cytochrome P450 2A6, the IC50 entry is recorded as “Not Active”. The inhibition constant (Ki) result (in series [2]; in series [4]; in series [5]; in series [6]; on Cytochrome P450 2A6) was “Not Active” each time.
Regarding `CCN(CC)CCCC(C)Nc1c2ccc(Cl)cc2nc2ccc(OC)cc12` (stereo unspecified) [QUINACRINE], the concentration for half-maximal inhibition (IC50) in series [1] (read-out: IC50) was 2280 nM; in series [2] (read-out: IC50) it was 1080 nM; in series [3], “Not Active”; in series [4] (read-out: IC50), 739 nM; in series [5], “Not Active”; in series [6], “Not Active”. Further, on Cytochrome P450 2A6, the IC50 entry is reported as “Not Active”. For the same compound, the Ki in series [1] (read-out: Ki) was 855 nM; in series [2] (read-out: Ki) it was 956 nM; in series [4] (read-out: Ki), 719 nM; in series [5], “Not Active”; in series [6], “Not Active”; on Cytochrome P450 2A6 it was “Not Active”.
As to `C[C@]12C=CC(=O)C=C1CC[C@H]1[C@@H]3C[C@@H](O)[C@](O)(C(=O)CO)[C@@]3(C)C[C@H](O)[C@@]12F` [TRIAMCINOLONE], the 50% inhibitory concentration (IC50) result in series [1] (sf9), in series [2], in series [3], in series [4], in series [5] and in series [6] was “Not Active” throughout. The half-maximal inhibitory concentration (IC50) result on Cytochrome P450 2A6 is given as “Not Active”. Besides, the inhibition constant Ki entry (in series [2]; in series [4]; in series [5]; in series [6]; at Cytochrome P450 2A6) was “Not Active” each time.
On to `CC[C@]1(O)C[C@@H]2CN(CCc3c([nH]c4ccccc34)[C@@](C(=O)OC)(c3cc4c(cc3OC)N(C)[C@H]3[C@@](O)(C(N)=O)[C@H](O)[C@]5(CC)C=CCN6CC[C@]43[C@@H]65)C2)C1` [VINDESINE], for which the IC50 entry in series [1] (sf9), in series [2], in series [3], in series [4], in series [5] and in series [6] was “Not Active” in each case. In addition, on Cytochrome P450 2A6, the concentration for half-maximal inhibition (IC50) result is “Not Active”. Also, the Ki result (in series [2]; in series [4]; in series [5]; in series [6]; on Cytochrome P450 2A6) was “Not Active” each time.
With `CCN(C(C)=O)c1cccc(-c2ccnc3c(C#N)cnn23)c1` [ZALEPLON], the half-maximal inhibitory concentration (IC50) entry in series [1] (sf9), in series [2], in series [3], in series [4], in series [5] and in series [6] was “Not Active” in each case. The IC50 result on Cytochrome P450 2A6 is reported as “Not Active”. Also, the inhibitory constant (Ki) result (in series [2]; in series [4]; in series [5]; in series [6]; at Cytochrome P450 2A6) was “Not Active” throughout.
Consider COBALTOUS CHLORIDE, for which the half-inhibitory concentration (IC50) result in series [1] (sf9), in series [2], in series [3], in series [4], in series [5] and in series [6] was “Not Active” in each case. At Cytochrome P450 2A6, the half-inhibitory concentration (IC50) result is listed as “Not Active”. Also, the inhibitory constant (Ki) entry in series [1] (sf9), in series [2], in series [3], in series [4], in series [5] and in series [6] was “Not Active” each time. On Cytochrome P450 2A6, the Ki result is recorded as “Not Active”.
As to COLISTIN, the IC50 entry in series [1] (sf9), in series [2], in series [3], in series [4], in series [5] and in series [6] was “Not Active” each time. The IC50 result against Cytochrome P450 2A6 is reported as “Not Active”. The Ki result in series [1] (sf9), in series [2], in series [3], in series [4], in series [5] and in series [6] was “Not Active” throughout. Moreover, the inhibition constant Ki entry on Cytochrome P450 2A6 is “Not Active”.

These data come from ChEMBL document CHEMBL1909046, “DrugMatrix in vitro pharmacology data”.
